{
  "source": "patent US20020137929A1",
  "about": "“1 - (3-heterocyclylphenyl) isothiourea, -isourea, -guanidine and -amidine herbicidal agents” (Intellectual Property Department, BASF Aktiengesellschaft, priority 1998, published 2002)",
  "key": {"ECHCG (Barnyardgrass)": {"test_system": "ECHCG (Barnyardgrass)", "experiment": "Preemergence herbicidal evaluation", "format": "in vivo, Echinochloa crus-galli", "conditions": "rated 4-5 weeks after treatment", "how_it_was_run": "(§1)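 Test compound, dissolved in aqueous acetone, was sprayed over planted soil cups at an equivalent of about 0.0156 to 0.500 kg/ha; seeds had been mixed with potting soil. Greenhouse growth followed, with visual 0-9 scoring of injury at four to five weeks.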"}, "ABUTH (Velvetleaf) [1]": {"test_system": "ABUTH (Velvetleaf)", "experiment": "Preemergence herbicidal evaluation", "format": "in vivo, Abutilon theophrasti", "conditions": "rated 4-5 weeks after treatment", "how_it_was_run": "as §1"}, "SETVI (Foxtail, Green)": {"test_system": "SETVI (Foxtail, Green)", "experiment": "Postemergence herbicidal evaluation", "format": "in vivo, Setaria viridis", "conditions": "postemergence", "how_it_was_run": "(§2)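 First, seedlings were raised for around two weeks. Next, test material in 50/50 acetone/water containing 0.5% TWEEN 20 was sprayed through a nozzle at 40 psi, equivalent to about 0.0156–0.500 kg/ha. Finally, after 4–5 weeks in the greenhouse, plants were rated 0–9.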"}, "AMBEL (Ragweed, Common)": {"test_system": "AMBEL (Ragweed, Common)", "experiment": "Preemergence herbicidal evaluation", "format": "in vivo, Ambrosia artemisifolia", "conditions": "rated 4-5 weeks after treatment", "how_it_was_run": "as §1"}, "[2]": {"test_system": "ECHORC (Watergrass (Calif.))", "experiment": "Preemergence weed control under flooded paddy conditions", "format": "in vivo, Echinochloa oryzoides", "conditions": "rated 3-4 weeks after treatment", "how_it_was_run": "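Ratings on a 0-9 visual scale cover stand, vigor, malformation, size, chlorosis and overall appearance relative to a control, taken three to four weeks post-treatment. Application was into flood water over freshly sown silt loam at roughly 0.0313 to 0.500 kg/ha.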"}, "ZEAMX (Corn, Field)": {"test_system": "ZEAMX (Corn, Field)", "experiment": "Postemergence herbicidal evaluation", "format": "in vivo, Zea mays", "conditions": "postemergence", "how_it_was_run": "as §2"}, "CASOB (Sicklepod)": {"test_system": "CASOB (Sicklepod)", "experiment": "Preemergence herbicidal evaluation", "format": "in vivo, Cassia obtusifolia", "conditions": "rated 4-5 weeks after treatment", "how_it_was_run": "as §1"}, "ABUTH (Velvetleaf) [3]": {"test_system": "ABUTH (Velvetleaf)", "experiment": "Postemergence herbicidal evaluation", "format": "in vivo, Abutilon theophrasti", "conditions": "postemergence", "how_it_was_run": "as §2"}, "[4]": {"test_system": "ECHORC (Watergrass (Calif.))", "experiment": "Postemergence weed control under flooded paddy conditions", "format": "in vivo, Echinochloa oryzoides", "conditions": "postemergence weeds, 3-4 weeks after treatment", "how_it_was_run": "(§3)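 Flood-water application, about 0.0313–0.500 kg/ha a.i. in aqueous/acetone 50/50 v/v; water depth 1.5–3 cm throughout. Weeds 3–5 cm, rice 1.5–2.5 leaf. Greenhouse; 0–9 visual rating vs control at 3–4 wk.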"}, "CYPSE (Flatsedge)": {"test_system": "CYPSE (Flatsedge)", "experiment": "Preemergence weed control under flooded paddy conditions", "format": "in vivo, Cyperus serotinus", "conditions": "rated 3-4 weeks after treatment", "how_it_was_run": "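Values are visual 0-9 scores against a control for a preemergence application into paddy flood water at about 0.0313 to 0.500 kg/ha. Greenhouse duration was three to four weeks.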"}, "[5]": {"test_system": "IPOHE (Morningglory, Ivyleaf)", "experiment": "Preemergence herbicidal evaluation", "format": "in vivo, Ipomoea hederacea", "conditions": "rated 4-5 weeks after treatment", "how_it_was_run": "as §1"}, "CYPIR (Rice Flatsedge)": {"test_system": "CYPIR (Rice Flatsedge)", "experiment": "Postemergence weed control under flooded paddy conditions", "format": "in vivo, Cyperus iria", "conditions": "postemergence weeds, 3-4 weeks after treatment", "how_it_was_run": "as §3"}, "[6]": {"test_system": "IPOHE (Morningglory, Ivyleaf)", "experiment": "Postemergence herbicidal evaluation", "format": "in vivo, Ipomoea hederacea", "conditions": "postemergence", "how_it_was_run": "as §2"}, "[7]": {"test_system": "GLXMAW (Soybean, Williams)", "experiment": "Postemergence herbicidal evaluation", "format": "in vivo, Glycine max, (L.) Merr. cv Williams", "conditions": "postemergence", "how_it_was_run": "as §2"}},
  "data": [
    {"smiles": "CCC1SC(=Nc2cc(-n3c(=O)cc(C(F)(F)F)n(C)c3=O)c(F)cc2Cl)N(C)C1=O", "note": "(stereo not shown) [Compound 10]", "values": [
      {"measurement": "ECHCG preemergence herbicidal rating", "setting": "ECHCG (Barnyardgrass); rate 0.0156 kg/ha", "value": 2.0},
      {"measurement": "ECHCG preemergence herbicidal rating", "setting": "ECHCG (Barnyardgrass); rate 0.0313 kg/ha", "value": 4.0},
      {"measurement": "ECHCG preemergence herbicidal rating", "setting": "ECHCG (Barnyardgrass); rate 0.0625 kg/ha", "value": 7.0},
      {"measurement": "ECHCG preemergence herbicidal rating", "setting": "ECHCG (Barnyardgrass); rate 0.1250 kg/ha", "value": 9.0},
      {"measurement": "ECHCG preemergence herbicidal rating", "setting": "ECHCG (Barnyardgrass); rate 0.2500 kg/ha", "value": 9.0},
      {"measurement": "ABUTH preemergence herbicidal rating", "setting": "ABUTH (Velvetleaf) [1]; rate 0.0156 kg/ha", "value": 5.5},
      {"measurement": "ABUTH preemergence herbicidal rating", "setting": "ABUTH (Velvetleaf) [1]; rate 0.0313 kg/ha", "value": 8.0},
      {"measurement": "ABUTH preemergence herbicidal rating", "setting": "ABUTH (Velvetleaf) [1]; rate 0.0625 kg/ha", "value": 9.0},
      {"measurement": "ABUTH preemergence herbicidal rating", "setting": "ABUTH (Velvetleaf) [1]; rate 0.1250 kg/ha", "value": 9.0},
      {"measurement": "ABUTH preemergence herbicidal rating", "setting": "ABUTH (Velvetleaf) [1]; rate 0.2500 kg/ha", "value": 9.0},
      {"measurement": "SETVI herbicidal rating", "setting": "SETVI (Foxtail, Green); rate 0.0156 kg/ha", "value": 0.0},
      {"measurement": "SETVI herbicidal rating", "setting": "SETVI (Foxtail, Green); rate 0.0313 kg/ha", "value": 0.0},
      {"measurement": "SETVI herbicidal rating", "setting": "SETVI (Foxtail, Green); rate 0.0625 kg/ha", "value": 1.0},
      {"measurement": "SETVI herbicidal rating", "setting": "SETVI (Foxtail, Green); rate 0.1250 kg/ha", "value": 3.0},
      {"measurement": "AMBEL preemergence herbicidal rating", "setting": "AMBEL (Ragweed, Common); rate 0.0156 kg/ha", "value": 0.3},
      {"measurement": "AMBEL preemergence herbicidal rating", "setting": "AMBEL (Ragweed, Common); rate 0.0313 kg/ha", "value": 0.3},
      {"measurement": "AMBEL preemergence herbicidal rating", "setting": "AMBEL (Ragweed, Common); rate 0.0625 kg/ha", "value": 3.3},
      {"measurement": "AMBEL preemergence herbicidal rating", "setting": "AMBEL (Ragweed, Common); rate 0.1250 kg/ha", "value": 4.7},
      {"measurement": "AMBEL preemergence herbicidal rating", "setting": "AMBEL (Ragweed, Common); rate 0.2500 kg/ha", "value": 6.3},
      {"measurement": "Herbicidal rating ECHORC", "setting": "[2]; 0.0313 kg/ha", "value": 0.0},
      {"measurement": "Herbicidal rating ECHORC", "setting": "[2]; 0.0625 kg/ha", "value": 1.0},
      {"measurement": "Herbicidal rating ECHORC", "setting": "[2]; 0.1250 kg/ha", "value": 2.0},
      {"measurement": "Herbicidal rating ECHORC", "setting": "[2]; 0.2500 kg/ha", "value": 2.0},
      {"measurement": "ZEAMX herbicidal rating", "setting": "ZEAMX (Corn, Field); rate 0.0156 kg/ha", "value": 4.3},
      {"measurement": "ZEAMX herbicidal rating", "setting": "ZEAMX (Corn, Field); rate 0.0313 kg/ha", "value": 5.3},
      {"measurement": "ZEAMX herbicidal rating", "setting": "ZEAMX (Corn, Field); rate 0.0625 kg/ha", "value": 5.3},
      {"measurement": "ZEAMX herbicidal rating", "setting": "ZEAMX (Corn, Field); rate 0.1250 kg/ha", "value": 5.3},
      {"measurement": "CASOB preemergence herbicidal rating", "setting": "CASOB (Sicklepod); rate 0.0156 kg/ha", "value": 0.0},
      {"measurement": "CASOB preemergence herbicidal rating", "setting": "CASOB (Sicklepod); rate 0.0313 kg/ha", "value": 0.7},
      {"measurement": "CASOB preemergence herbicidal rating", "setting": "CASOB (Sicklepod); rate 0.0625 kg/ha", "value": 0.7},
      {"measurement": "CASOB preemergence herbicidal rating", "setting": "CASOB (Sicklepod); rate 0.1250 kg/ha", "value": 1.3},
      {"measurement": "CASOB preemergence herbicidal rating", "setting": "CASOB (Sicklepod); rate 0.2500 kg/ha", "value": 3.3},
      {"measurement": "ABUTH herbicidal rating", "setting": "ABUTH (Velvetleaf) [3]; rate 0.0156 kg/ha", "value": 9.0},
      {"measurement": "ABUTH herbicidal rating", "setting": "ABUTH (Velvetleaf) [3]; rate 0.0313 kg/ha", "value": 6.5},
      {"measurement": "ABUTH herbicidal rating", "setting": "ABUTH (Velvetleaf) [3]; rate 0.0625 kg/ha", "value": 7.0},
      {"measurement": "ABUTH herbicidal rating", "setting": "ABUTH (Velvetleaf) [3]; rate 0.1250 kg/ha", "value": 9.0},
      {"measurement": "Herbicidal rating ECHORC", "setting": "[4]; rate 0.0313 kg/ha", "value": 0.0},
      {"measurement": "Herbicidal rating ECHORC", "setting": "[4]; rate 0.0625 kg/ha", "value": 1.0},
      {"measurement": "Herbicidal rating ECHORC", "setting": "[4]; rate 0.1250 kg/ha", "value": 2.0},
      {"measurement": "Herbicidal rating ECHORC", "setting": "[4]; rate 0.2500 kg/ha", "value": 2.0},
      {"measurement": "Herbicidal rating CYPSE", "setting": "CYPSE (Flatsedge); 0.0313 kg/ha", "value": 0.0},
      {"measurement": "Herbicidal rating CYPSE", "setting": "CYPSE (Flatsedge); 0.0625 kg/ha", "value": 0.0},
      {"measurement": "Herbicidal rating CYPSE", "setting": "CYPSE (Flatsedge); 0.1250 kg/ha", "value": 0.0},
      {"measurement": "Herbicidal rating CYPSE", "setting": "CYPSE (Flatsedge); 0.2500 kg/ha", "value": 0.0},
      {"measurement": "IPOHE preemergence herbicidal rating", "setting": "[5]; rate 0.0156 kg/ha", "value": 2.0},
      {"measurement": "IPOHE preemergence herbicidal rating", "setting": "[5]; rate 0.0313 kg/ha", "value": 3.0},
      {"measurement": "IPOHE preemergence herbicidal rating", "setting": "[5]; rate 0.0625 kg/ha", "value": 5.3},
      {"measurement": "IPOHE preemergence herbicidal rating", "setting": "[5]; rate 0.1250 kg/ha", "value": 8.3},
      {"measurement": "IPOHE preemergence herbicidal rating", "setting": "[5]; rate 0.2500 kg/ha", "value": 9.0},
      {"measurement": "Herbicidal rating CYPIR", "setting": "CYPIR (Rice Flatsedge); rate 0.0313 kg/ha", "value": 0.0},
      {"measurement": "Herbicidal rating CYPIR", "setting": "CYPIR (Rice Flatsedge); rate 0.0625 kg/ha", "value": 0.0},
      {"measurement": "Herbicidal rating CYPIR", "setting": "CYPIR (Rice Flatsedge); rate 0.1250 kg/ha", "value": 2.0},
      {"measurement": "Herbicidal rating CYPIR", "setting": "CYPIR (Rice Flatsedge); rate 0.2500 kg/ha", "value": 4.0},
      {"measurement": "IPOHE herbicidal rating", "setting": "[6]; rate 0.0156 kg/ha", "value": 3.0},
      {"measurement": "IPOHE herbicidal rating", "setting": "[6]; rate 0.0313 kg/ha", "value": 7.0},
      {"measurement": "IPOHE herbicidal rating", "setting": "[6]; rate 0.0625 kg/ha", "value": 9.0},
      {"measurement": "IPOHE herbicidal rating", "setting": "[6]; rate 0.1250 kg/ha", "value": 8.0},
      {"measurement": "GLXMAW herbicidal rating", "setting": "[7]; rate 0.0156 kg/ha", "value": 4.0},
      {"measurement": "GLXMAW herbicidal rating", "setting": "[7]; rate 0.0313 kg/ha", "value": 4.5},
      {"measurement": "GLXMAW herbicidal rating", "setting": "[7]; rate 0.0625 kg/ha", "value": 5.3},
      {"measurement": "GLXMAW herbicidal rating", "setting": "[7]; rate 0.1250 kg/ha", "value": 5.8}
    ]}
  ]
}
